The results in this text go back to PubChem BioAssay AID330 (DTP/NCI, 2004).

Values joined by “and” are separate entries in the source; they are usually repeats but may differ in a detail not shown here. Identical values can stand only once. Inconclusive results and toxic doses are left out.

For this assay, the system named is P388 leukemia ip, CD2F1 mice, survival T/C. Nature of the assay: NCI In Vivo Anticancer Drug Screen. Data for tumor model P388 Leukemia (intraperitoneal) in CD2F1 (CDF1) mice. Conditions: endpoint: median survival time, higher = longer survival. Put shortly:
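Mice carrying the transplanted tumor received test compound or vehicle. Survival was recorded in each group, and the value is the treated-group measurement divided by that of the vehicle-treated control group.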

Where [1] appears, read: dose: 50.0 mg/kg/injection, schedule: Q01DX009 (ip), vehicle: saline with Tween-80.
The mark [2] stands for this setting: dose: 100.0 mg/kg/injection, schedule: Q01DX009 (ip), vehicle: saline with Tween-80.
[3] abbreviates: dose: 200.0 mg/kg/injection, schedule: Q01DX009 (ip), vehicle: saline with Tween-80.
[4] abbreviates: dose: 50.0 mg/kg/injection, schedule: Q01DX009 (ip), vehicle: saline.
Where [5] appears, read: dose: 100.0 mg/kg/injection, schedule: Q01DX009 (ip), vehicle: saline.
Setting [6] is: dose: 200.0 mg/kg/injection, schedule: Q01DX009 (ip), vehicle: saline.
[7] abbreviates: dose: 50.0 mg/kg/injection, schedule: Q01DX009 (ip), vehicle: Klucel (hydroxypropylcellulose) (HPC).
[8] abbreviates: dose: 100.0 mg/kg/injection, schedule: Q01DX009 (ip), vehicle: Klucel (hydroxypropylcellulose) (HPC).
Setting [9] is: dose: 200.0 mg/kg/injection, schedule: Q01DX009 (ip), vehicle: Klucel (hydroxypropylcellulose) (HPC).
Setting [10] is: dose: 60.0 mg/kg/injection, schedule: Q01DX005 (ip), vehicle: Klucel (hydroxypropylcellulose) (HPC).
The mark [11] stands for this setting: dose: 120.0 mg/kg/injection, schedule: Q01DX005 (ip), vehicle: Klucel (hydroxypropylcellulose) (HPC).

For the compound `CNC(=S)c1cccc(-c2ccccn2)n1`, the T/C (dose: 12.5 mg/kg/injection, schedule: Q04DX003 (ip), vehicle: Klucel (hydroxypropylcellulose) (HPC)) was 104 % of control; the T/C (dose: 25.0 mg/kg/injection, schedule: Q04DX003 (ip), vehicle: Klucel (hydroxypropylcellulose) (HPC)) is 113 % of control; the T/C (dose: 50.0 mg/kg/injection, schedule: Q04DX003 (ip), vehicle: Klucel (hydroxypropylcellulose) (HPC)) is 108 % of control and 91 % of control.
In the case of `NC(=S)N/N=C/c1cccnc1`, the T/C (dose: 25.0 mg/kg/injection, schedule: Q01DX009 (ip), vehicle: saline with Tween-80) is 92 % of control; the T/C under setting [1] is 92 % of control; the T/C under setting [2] is 99 % of control; the T/C under setting [3] was 92 % of control.
As to `CSC(=S)/N=c1/sccn1C`, the T/C (dose: 25.0 mg/kg/injection, schedule: Q04DX002 (ip), vehicle: saline with Tween-80) was 100 % of control; the T/C (dose: 50.0 mg/kg/injection, schedule: Q04DX002 (ip), vehicle: saline with Tween-80) was 100 % of control; the T/C (dose: 100.0 mg/kg/injection, schedule: Q04DX002 (ip), vehicle: saline with Tween-80) was 99 % of control.
For `CCOC1CN(C(=O)OC)N1C(=O)OC` (stereo unspecified), the T/C under setting [4] is 100 % of control, the T/C under setting [5] was 107 % of control and the T/C under setting [6] is 105 % of control.
For `NC(=N\O)/C(N)=N\O`, the T/C by setting is: under setting [7], 100 % of control; under setting [8], 98 % of control; under setting [9], 106 % of control.
`CC(=O)N1C=[N+](C)C(C)(C)C1`: the T/C is 103 % of control (dose: 100.0 mg/kg/injection, schedule: Q04DX003 (ip), vehicle: saline) and 90 % of control (dose: 200.0 mg/kg/injection, schedule: Q04DX003 (ip), vehicle: saline).
`O=C1c2ccccc2CN(C(=Nc2ccccc2)Nc2ccccc2)c2ccccc21`: the T/C reads like this: (dose: 50.0 mg/kg/injection, schedule: Q01DX005 (ip), vehicle: saline with Tween-80) 90 % of control; (dose: 100.0 mg/kg/injection, schedule: Q01DX005 (ip), vehicle: saline with Tween-80) 91 % of control; (dose: 200.0 mg/kg/injection, schedule: Q01DX005 (ip), vehicle: saline with Tween-80) 102 % of control.
For `C=C(C)[C@@H]1CC[C@@H]2C(=CC[C@]3(C)C([C@H](C)CC/C=C(/C)C(=O)O)CC[C@@]23C)[C@@]1(C)CCC(=O)O` (stereo partly specified), the T/C is 88 % of control (dose: 1.41 mg/kg/injection, schedule: Q01DX009 (ip), vehicle: saline + alcohol); 93 % of control (dose: 2.81 mg/kg/injection, schedule: Q01DX009 (ip), vehicle: saline + alcohol); 99 % of control (dose: 5.63 mg/kg/injection, schedule: Q01DX009 (ip), vehicle: saline + alcohol); 99 % of control (dose: 11.25 mg/kg/injection, schedule: Q01DX009 (ip), vehicle: saline + alcohol); 102 % of control (dose: 90.0 mg/kg/injection, schedule: Q01DX009 (ip), vehicle: saline + alcohol).
Take `Oc1ccc(C(O)CNCCCCCCNCC(O)c2ccc(O)c(O)c2)cc1O` (stereo unspecified): the T/C runs as follows: (dose: 33.0 mg/kg/injection, schedule: Q01DX009 (ip), vehicle: saline) 99 % of control and 88 % of control; under setting [4], 121 % of control and 87 % of control and 96 % of control; (dose: 75.0 mg/kg/injection, schedule: Q01DX009 (ip), vehicle: saline) 96 % of control.
On to `CCCC(=O)Nc1ncnc2c1ncn2C1OC2COP(=O)(O)OC2C1OC(=O)CCC` (stereo unspecified), for which the T/C is, setting by setting: (dose: 3.13 mg/kg/injection, schedule: Q03HX012 (ip), vehicle: saline) 114 % of control; (dose: 6.25 mg/kg/injection, schedule: Q03HX012 (ip), vehicle: saline) 112 % of control; (dose: 12.5 mg/kg/injection, schedule: Q03HX012 (ip), vehicle: saline) 112 % of control; (dose: 25.0 mg/kg/injection, schedule: Q01DX009 (ip), vehicle: saline) 96 % of control; (dose: 25.0 mg/kg/injection, schedule: Q03HX012 (ip), vehicle: saline) 112 % of control; under setting [4], 96 % of control. Also, the T/C was 116 % of control (dose: 50.0 mg/kg/injection, schedule: Q03HX012 (ip), vehicle: saline); 96 % of control under setting [5]; 108 % of control (dose: 100.0 mg/kg/injection, schedule: Q03HX012 (ip), vehicle: saline); 104 % of control under setting [6]; 109 % of control (dose: 400.0 mg/kg/injection, schedule: Q01DX009 (ip), vehicle: saline).
Regarding `CN(C)c1ccc(NC(=O)c2ccccc2O)cc1`, the T/C was 113 % of control under setting [1], 104 % of control under setting [2] and 99 % of control under setting [3].
On to `O=C(O)C1[S][Sb]([CH](C(=O)O)[CH](C(=O)O)[Sb]2[S]C(C(=O)O)C(C(=O)O)[S]2)[S]C1C(=O)O` (stereo unspecified), for which the T/C is 100 % of control under setting [4], 98 % of control under setting [5] and 108 % of control under setting [6].
`CC1Cc2c([nH]c(=O)n(-c3ccccc3)c2=S)O1` (stereo unspecified): the T/C is 96 % of control (dose: 25.0 mg/kg/injection, schedule: Q01DX001 (ip), vehicle: Klucel (hydroxypropylcellulose) (HPC)); 112 % of control (dose: 50.0 mg/kg/injection, schedule: Q01DX001 (ip), vehicle: Klucel (hydroxypropylcellulose) (HPC)); 100 % of control (dose: 100.0 mg/kg/injection, schedule: Q01DX001 (ip), vehicle: Klucel (hydroxypropylcellulose) (HPC)).
As to `CC1(C)C2=CC3(C)N(CN2c2ccccc21)c1ccccc1C3(C)C` (stereo unspecified), the T/C under setting [10] was 92 % of control; the T/C under setting [11] was 95 % of control; the T/C (dose: 240.0 mg/kg/injection, schedule: Q01DX005 (ip), vehicle: Klucel (hydroxypropylcellulose) (HPC)) was 95 % of control.
Consider `Cc1ncn(-c2ccccc2)c(=O)c1N=Cc1ccccc1`, for which the T/C was 86 % of control (dose: 60.0 mg/kg/injection, schedule: Q01DX005 (ip), vehicle: saline with Tween-80) and 87 % of control (dose: 120.0 mg/kg/injection, schedule: Q01DX005 (ip), vehicle: saline with Tween-80).
On to `O=C(Nc1cc(Cl)ccc1Cl)/C(Cl)=C1/Sc2ccccc2NC1=O`, for which the T/C was 108 % of control (dose: 100.0 mg/kg/injection, schedule: Q01DX001 (ip), vehicle: saline with Tween-80); 90 % of control (dose: 200.0 mg/kg/injection, schedule: Q01DX001 (ip), vehicle: saline with Tween-80); 90 % of control (dose: 400.0 mg/kg/injection, schedule: Q01DX001 (ip), vehicle: saline with Tween-80).
Take `CN1C(=O)C=CC1=O`: the T/C is 96 % of control (dose: 0.5 mg/kg/injection, schedule: Q01DX009 (ip), vehicle: saline); 103 % of control (dose: 1.0 mg/kg/injection, schedule: Q01DX009 (ip), vehicle: saline); 100 % of control (dose: 2.0 mg/kg/injection, schedule: Q01DX009 (ip), vehicle: saline); 101 % of control (dose: 4.0 mg/kg/injection, schedule: Q01DX009 (ip), vehicle: saline).
On to `Cc1noc2c1N=C(c1ccccc1)CC(c1ccccc1)C2` (stereo unspecified), for which the T/C was 104 % of control (dose: 25.0 mg/kg/injection, schedule: Q01DX009 (ip), vehicle: Klucel (hydroxypropylcellulose) (HPC)); 104 % of control and 111 % of control under setting [7]; 109 % of control under setting [8]; 109 % of control under setting [9].
Regarding `CC(=O)NCCn1nc(-c2ccc(Cl)cc2)c(-c2ccc(Cl)cc2)c(C(C)=O)c1=O`, the T/C runs as follows: (dose: 6.25 mg/kg/injection, schedule: Q01DX005 (ip), vehicle: saline with Tween-80) 103 % of control; (dose: 12.5 mg/kg/injection, schedule: Q01DX005 (ip), vehicle: saline with Tween-80) 103 % of control.
On to `C=CC(=O)N1CN(C(=O)C=C)CN(C(=O)C=C)C1`, for which the T/C (dose: 6.25 mg/kg/injection, schedule: Q01DX009 (ip), vehicle: saline with Tween-80) is 100 % of control and the T/C (dose: 12.5 mg/kg/injection, schedule: Q01DX009 (ip), vehicle: saline with Tween-80) was 158 % of control.
Consider `O=C(Nc1cccc(Cl)c1Cl)OCCCc1ccncc1`, for which the T/C is 100 % of control under setting [1] and 100 % of control under setting [2].
Turning to `N/N=C1\c2ccccc2-c2cccc(O)c21`, the T/C is, setting by setting: (dose: 7.5 mg/kg/injection, schedule: Q01DX005 (ip), vehicle: saline with Tween-80) 101 % of control; (dose: 15.0 mg/kg/injection, schedule: Q01DX005 (ip), vehicle: saline with Tween-80) 97 % of control; (dose: 30.0 mg/kg/injection, schedule: Q01DX005 (ip), vehicle: saline with Tween-80) 93 % of control.
As for `O=C(c1ccccc1)N1C=CN(C(=O)c2ccccc2)C(c2ccccc2)C1c1ccccc1` (stereo unspecified), the T/C under setting [10] was 88 % of control and the T/C under setting [11] is 90 % of control.
